Test results reported in article PMC5081312, “Antifouling phenyl ethers and other compounds from the invertebrates and their symbiotic fungi collected from the South China Sea” (AMB Express, 2016).
In brackets after ≈: the same amount, converted by molar mass. Where two headings read alike, the source gives them in different places.

Key:
[1] = test system: cyprids of barnacle B. amphitrite; test: Anti-larval settlement bioassay (antifouling activity and larval toxicity); format: in vivo; conditions: for EC50: concentration where 50% of larvae were inhibited to settle vs negative control, read-out: EC50 (larval settlement inhibition)
Description: (§1) The newly released nauplii were screened with the aperture of 90 μm. The newly released nauplii were raised in filtered seawater (FSW) at 28 °C with mild aeration and fed with Chaetoceros gracilis Schutt at 1 × 10^6 cells ml^−1. The nauplius larvae transformed into cyprids (ready to attach and metamorphose) after 3.5 days. Newly transformed cyprids were kept in filtered seawater at 4 °C overnight before being used in the anti-larval settlement bioassay.
(§2) The antifouling activity was evaluated as larval settlement inhibition against the cyprids of barnacle B. amphitrite using 24-well polystyrene plates (Nunc, Naperville, CA, USA). Each compound was dissolved in a stock solution of DMSO with the concentration of 50 mg ml^−1, and then diluted 1000 times with FSW to 50 μg ml^−1. The compound was further transferred into FSW to make up the following test solution with the concentrations ranging from 25 to 0.50 μg ml^−1. One millilitre of the test solution and 16–20 larvae were allocated to each well of the 24-well plate. Each concentration had three replicate wells. The plates were cultivated in darkness for 48 h at 28 °C. The effects of the test compounds against the larvae settlement were determined by examining the plates under a dissecting microscope to check for (1) settled larvae (attached and metamorphosed), (2) swimming larvae, as well as (3) any possible toxic effects of the treatments (dead and paralyzed). The number of the settled larvae was expressed as a percentage of the total number of larvae per well. Each compound was tested by triplicate experiments using three different batches of larvae.
(§3) The EC50 and LC50 values of each compound were calculated according to the records of anti-larval settlement experiments. […] Then a concentration–response curve was plotted and a tread line was set up.

[2] = test system: cyprids of barnacle B. amphitrite; parameters: method as in Jacobson and Willingham [2000]; conditions: concentration used for positive control; ref Jacobson and Willingham [2000]; cited from earlier work
[3] = Anti-larval settlement bioassay (antifouling activity and larval toxicity); format: in vivo; conditions: Balanus (Amphibalanus) amphitrite (barnacle cyprid larvae), in vivo, other: larvae immersed in test solution; cyprids of B. amphitrite, 48 h at 28 °C, concentration where 50% of larvae were dead
Description: as §1, §2, §3

in vivo = conditions: Artemia salina (brine shrimp), in vivo, LC50 (brine shrimp lethality), Artemia salina
Description: (§4) The brine shrimp lethality bioassay on Artemia salina was performed to predict the toxicity of the compounds. The test was conducted using 24-well plate as described previously according to standard protocols (Solis et al. [1993]; Meyer et al. [1982]). The wells containing FSW-DMSO (v/v 1:1000) served as the negative controls. Adriamycin was used as a positive control. There were three replicate wells per concentration, and each bioassay experiment had three replicates using three different batches of brine shrimp.

[4] = test system: brine shrimps Artemia salina; test: in vivo; conditions: read-out: LC50 (brine shrimp lethality); Artemia salina
Description: as §4

[5] = cyprids of B. amphitrite, 48 h at 28 °C

| SMILES | LC50/EC50 ratio (therapeutic ratio) ([1]; B. amphitrite cyprids, ratio >15 considered non-toxic) | LC50 ([1]; cyprids of B. amphitrite, 48 h at 28 °C, concentration where 50% of larvae were dead) [µM] | EC50 [1, 5] [µM] | EC50 value against B. amphitrite [2] [µg/mL] | LC50 at 48 h [3] [µM] | EC50 ([1]; Amphibalanus amphitrite, 48 h, cyprids of B. amphitrite, 48 h at 28 °C) [µM] | LC50 (in vivo) [µM] | LC50 [4] [µM] |
| --- | --- | --- | --- | --- | --- | --- | --- | --- |
| CCCCCCCCn1sc(Cl)c(Cl)c1=O [Sea-Nine 211™, reference compound] | 20.3 | 88.7 | 4.36 | 1.23 (≈ 4.36 µM) |  |  |  |  |
| COC(=O)c1c(C)cc(Oc2cc(C)cc(O)c2)cc1O [compound 3, 4-Methoxyacyl-diorcinol] |  |  | 7.43 |  | > 174 | < 10 | ≥ 34.7 | 34.7 |
